In patent publication US20050153361A1, “Therapeutic and diagnostic applications of protein disulphide isomerases” (priority 2003, published 2005):
“Also recorded” adds a separate entry of the source.

Assays:
[1] = tested on: adrenomedullin secretion by HDMEC; experiment: Adrenomedullin secretion by HDMEC measured by radioimmunoassay after siRNA treatment; format: cell-based, human; details: under hypoxia
Protocol: (§1) Transfection of microvascular endothelial cells with siRNA: EndoPDI specific (5′-[…]-3′) and PDI specific (5′-[…]-3′) siRNA oligos were synthesized using the SilencerTM siRNA Construction kit (Ambion, Huntingdon, UK) following manufacturer's instructions. HDMEC (5×10^5 cells) were plated onto 0.2% gelatin coated 10 cm petri dishes and incubated for 24 h. Cells were then transfected with 10 nM EndoPDI and/or PDI siRNA using oligofectamine reagent (Invitrogen) according to the manufacturer's instructions. The cells were then incubated for 24 h prior to hypoxia for 16 h (0.1% O2, 5% CO2 and 94.9% N2) or continuation of normoxic exposure for 16 h before performing FACS analysis as described.
Measurement of adrenomedullin by Radioimmunoassay: The secretion of adrenomedullin by endothelial cells was measured using an adrenomedullin radioimmunoassay (Peninsula Laboratories Europe, Ltd, Merseyside, England) following manufacturer's instructions. Briefly, 50,000 cells were treated with RNAi oligos as before, the medium collected and used in the radioimmunoassay.

[2] = tested on: CD105 cell surface expression on HDMEC; experiment: CD105 cell surface expression on HDMEC by FACS after siRNA treatment; format: cell-based, human; details: under hypoxia
Protocol: as §1
The cell surface expression of CD105 was quantified by incubating 10^5 cells per tube with 50 μl (10 μl/ml in PBS) of monoclonal antibody to CD105 on ice for 1 h and washed twice with cold PBS. After incubation with FITC-labelled rabbit anti-mouse F(ab)2 (1/40 DAKO) for 30 min on ice, the cells were washed and resuspended in 0.3 ml of 2% buffered formalin and analyzed on a FACScan.

EndoPDI protein = experiment: Western blotting of EndoPDI protein after siRNA transfection; format: cell-based, human; details: HDMEC, 10 nM siRNA
Excerpt: Production of polyclonal antibodies to EndoPDI and Western blotting; The peptide of sequence ADGEDGQDPHSKC was synthesized by the Protein and Peptide Chemistry Department of Cancer Research UK, using standard techniques. This sequence corresponds to amino acids 52 to 63 of the human EndoPDI protein sequence with an additional cysteine residue added to the C-terminus to enable coupling to a carrier protein. The peptide was coupled to Imject® Maleimide Activated mcKLH (Pierce, Rockford, USA) following the manufacturer's instructions and diluted with Freunds adjuvant before injection into rabbits. A standard immunisation protocol was followed with 200 μg immunogen used for the first injection and 100 μg immunogen for subsequent boosts. The test bleeds were screened against pre-bleeds by ELISA to identify the presence of antibodies to EndoPDI in the rabbit serum.
as §1

[3] = tested on: endothelin-1 secretion by HDMEC; experiment: Endothelin-1 secretion by HDMEC measured by ELISA after siRNA treatment; format: cell-based, human; details: under hypoxia
Protocol: as §1
Measurement of endothelin-1 secretion by ELISA: The secretion of endothelin-1 by endothelial cells was measured using a human endothelin-1 ELISA (R&D Systems, Abindgdon, UK) following manufacturer's instructions. Briefly, 50,000 cells were treated with RNAi oligos as before, the medium collected and diluted 1/25 for use in the ELISA.

EndoPDI mRNA = experiment: RNase protection analysis of EndoPDI mRNA after siRNA transfection; format: cell-based, human; details: HDMEC, 10 nM siRNA
Protocol: RNase Protection Assay. Total RNA was extracted from cells in culture using TRI reagent (Sigma, Poole, Dorset, UK). RNase protection assays were performed in duplicate on 10-30 μg of total RNA as described (16). […] The protected fragment size for EndoPDI was 300 nucleotides. In each assay, a positive and negative (tRNA only) control and undigested riboprobes were analysed. Intensity of signal, quantified on a PhosphorImager (Molecular Dynamics, Chesham, Buckinghamshire, United Kingdom) was calculated as the ratio of the signal of interest to U6 mRNA to correct for variations in loading.
as §1

[4] = tested on: human dermal microvascular endothelial cells (HDMEC); experiment: FACS analysis of apoptosis (Annexin V-FITC / propidium iodide) after siRNA transfection; format: cell-based; details: for cell population being apoptotic: 10 nM siRNA
Protocol: as §1
FACS Analysis: To distinguish apoptotic from necrotic cells, double staining for exposed phosphatidylserine and propidium iodide (PI) exclusion was performed as follows: Cells were harvested, washed twice with PBS and resuspended in binding buffer (10 mM HEPES/NaOH, pH 7.4, 140 mM NaCl, 2.5 mM CaC12). Five μl Annexin V-FITC antibody (Pharmingen, San Diego, USA) and 10 μl PI (50 μg/ml) were added to the cells. After incubation for 15 min in the dark at room temperature, the cells were analysed by a FACScan. Controls of unstained cells, cells stained with Annexin V-FITC only and cells stained with PI only were used to set up compensation and quadrants.

[5] = hypoxia 16 h (0.1% O2), listed as siRNA specific to EndoPDI
[6] = normoxia, listed as siRNA specific to EndoPDI

| Substance | adrenomedullin secretion [1] | CD105 cell surface expression [2] | share of the cell population with marked reduction in CD105 expression ([2]; two peaks apparent) [%] | EndoPDI protein expression (EndoPDI protein; [5]) | EndoPDI protein expression (EndoPDI protein; normoxia) | EndoPDI protein expression (EndoPDI protein; [6]) | endothelin-1 secretion [3] | EndoPDI mRNA expression (EndoPDI mRNA; [5]) | EndoPDI mRNA expression (EndoPDI mRNA; normoxia) | EndoPDI mRNA expression (EndoPDI mRNA; [6]) | necrotic cell population ([4]; HDMEC, hypoxia) | apoptotic population compared with controls ([4]; HDMEC, hypoxia (0.1% O2, 16 h)) | cell population being apoptotic ([4]; HDMEC, hypoxia (0.1% O2, 16 h)) [%] | cell population being apoptotic ([4]; HDMEC, normoxia) [%] | HDMEC survival ([4]; normoxia) | apoptotic population compared with controls ([4]; HDMEC, normoxia) |
| --- | --- | --- | --- | --- | --- | --- | --- | --- | --- | --- | --- | --- | --- | --- | --- | --- |
| EndoPDI specific siRNA: EndoPDI specific siRNA oligo, 5′-GAAGCTGTGAAGTACCAGGTT-3′, synthesized with the Silencer siRNA Construction kit (listed as DNA, chemistry not given here) | significantly reduced | marked reduction | 50 | loss of EndoPDI expression; also recorded: complete loss | completely blocked | complete loss | even greater reduction | loss of EndoPDI expression; also recorded: complete loss | completely blocked | complete loss | significant increase | significant increase | 12 | 4.5 | no effect |  |
| PDI specific siRNA: PDI specific siRNA oligo, 5′-GACCTCCCCTTCAAAGTTGTT-3′ (listed as DNA, chemistry not given here) [reference compound] | little effect | little effect |  |  |  |  | significant decrease |  |  |  |  | significant increase | 48 | 55 |  | significant increase |
